Test results as given in article PMC6139898, “Engineering xylose metabolism in thraustochytrid T18” (Biotechnology for Biofuels, 2018).

What was measured:
[1] = target: T1, XylA (Escherichia coli, UniProt P00944); assay: HPLC-RI substrate conversion, overnight; assay type: biochemical; settings: 30 °C, 50 mM HEPES pH 7.4, 10 mM MgCl2, 5 mM MgATP
T1 construct: full length, N-terminal His tag, expressed in E. coli BL21(DE3)pLysS
T1 sequence (P00944 1-440): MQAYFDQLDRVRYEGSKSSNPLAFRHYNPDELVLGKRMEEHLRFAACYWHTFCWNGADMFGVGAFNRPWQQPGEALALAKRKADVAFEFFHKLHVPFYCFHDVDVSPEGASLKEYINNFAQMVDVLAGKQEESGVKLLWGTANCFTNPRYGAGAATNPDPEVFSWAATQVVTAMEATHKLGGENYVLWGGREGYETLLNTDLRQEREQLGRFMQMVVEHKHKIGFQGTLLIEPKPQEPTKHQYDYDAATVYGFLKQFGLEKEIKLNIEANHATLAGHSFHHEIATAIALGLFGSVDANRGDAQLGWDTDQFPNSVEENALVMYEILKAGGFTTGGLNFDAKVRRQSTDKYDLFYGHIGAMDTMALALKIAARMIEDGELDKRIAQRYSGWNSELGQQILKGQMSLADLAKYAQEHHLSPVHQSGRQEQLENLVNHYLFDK

[2] = target: T2, T18 xylose isomerase (XI) (Thraustochytrium sp. ONC-T18, UniProt A0A385ZBK6); assay: HPLC-RI substrate conversion, overnight; assay type: biochemical; settings: 50 °C, 50 mM HEPES pH 7.4, 10 mM MgCl2, 5 mM MgATP; partly pure fraction
T2 construct: gene xylA
T2 sequence (A0A385ZBK6 1-439): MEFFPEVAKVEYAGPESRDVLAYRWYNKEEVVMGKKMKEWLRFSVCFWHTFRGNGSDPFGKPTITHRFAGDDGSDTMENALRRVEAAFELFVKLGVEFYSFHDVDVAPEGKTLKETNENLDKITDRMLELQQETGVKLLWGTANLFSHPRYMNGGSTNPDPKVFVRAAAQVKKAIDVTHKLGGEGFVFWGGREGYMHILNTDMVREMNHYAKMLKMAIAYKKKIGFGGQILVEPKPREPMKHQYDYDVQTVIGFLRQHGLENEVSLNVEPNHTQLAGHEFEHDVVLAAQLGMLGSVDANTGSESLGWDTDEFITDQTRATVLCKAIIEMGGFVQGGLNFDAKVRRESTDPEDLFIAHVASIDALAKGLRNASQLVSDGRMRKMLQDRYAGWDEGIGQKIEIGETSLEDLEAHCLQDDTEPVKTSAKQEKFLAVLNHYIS

| SMILES | HPLC-RI substrate conversion, overnight [1] | HPLC-RI substrate conversion, overnight [2] |
| --- | --- | --- |
| OC1OC[C@@H](O)[C@H](O)[C@H]1O (stereo partly shown) [xylose] | Both XylA and T18 xylose isomerase showed increased activity on both sugars | Both XylA and T18 xylose isomerase showed increased activity on both sugars |
| O=C(CO)[C@@H](O)[C@H](O)CO [xylulose] | Both XylA and T18 xylose isomerase showed increased activity on both sugars | Both XylA and T18 xylose isomerase showed increased activity on both sugars |
